Article PMC6207370 (Xenobiotica; the fate of foreign compounds in biological …, 2017)
“And” between values parts separate entries of the source, which are not always exact repeats. Equal entries are not always repeated. Where two headings read alike, the source gives them in different places. Marks after values point to notes of the source that are not given here. Each block holds one compound with its values, some of them ahead of it.

Key:
[1] = Allometric scaling; set-up: species or system human; conditions: for SSS Human Predicted S9 CLint: exponent 0.75
[2] = Incubations with guinea pig hepatic S9; conditions: for Fm,AO Method A (fraction metabolized by AO) / Fm,AO Method B (fraction metabolized by AO): guinea pig hepatic S9; for Fm,AO Method A (fraction metabolized by AO): method A (eq. 4); for Fm,AO Method B (fraction metabolized by AO): method B (eq. 5), values > 1 assumed equal to 1; for E (estimated hepatic extraction ratio): guinea pig, E = CLHEP/QH from hepatic S9 (+NADPH)
[3] = human; ref Hutzler JM, Cerny MA, Yang YS et al. (2014); cited from earlier work
[4] = Incubations with mouse hepatic S9; conditions: for CLint scaled at 1 μM: male, CD-1, mouse, Table 1, triplicate, 2–3 experiments; for E (estimated hepatic extraction ratio): mouse, E = CLHEP/QH from hepatic S9 (+NADPH)
[5] = Single-species scaling
[6] = rat; ref Hutzler JM, Cerny MA, Yang YS et al. (2014); cited from earlier work
[7] = mouse; ref Hutzler JM, Cerny MA, Yang YS et al. (2014); cited from earlier work
[8] = Incubations with cynomolgus monkey hepatic S9; conditions: for Fm,AO Method A (fraction metabolized by AO): method A (eq. 4); for Fm,AO Method B (fraction metabolized by AO): method B (eq. 5), values > 1 assumed equal to 1; for E (estimated hepatic extraction ratio): cynomolgus monkey, E = CLHEP/QH from hepatic S9 (+NADPH)
[9] = Incubations with rhesus monkey hepatic S9; conditions: for Fm,AO Method A (fraction metabolized by AO) / Fm,AO Method B (fraction metabolized by AO): rhesus monkey hepatic S9; for Fm,AO Method A (fraction metabolized by AO): method A (eq. 4); for Fm,AO Method B (fraction metabolized by AO): method B (eq. 5), values > 1 assumed equal to 1; for E (estimated hepatic extraction ratio): rhesus monkey, E = CLHEP/QH from hepatic S9 (+NADPH)
[10] = Incubations with rat hepatic S9; conditions: for CLint scaled at 1 μM: male, Sprague-Dawley, Table 1, triplicate, 2–3 experiments; for CLint scaled at 1 μM / E (estimated hepatic extraction ratio) / CLHEP (hepatic clearance): rat; for Fm,AO Method A (fraction metabolized by AO): method A (eq. 4); for Fm,AO Method B (fraction metabolized by AO): method B (eq. 5), values > 1 assumed equal to 1; for E (estimated hepatic extraction ratio): E = CLHEP/QH from hepatic S9 (+NADPH); for CLHEP (hepatic clearance): well-stirred model from S9 CLint (+NADPH), uncorrected for fraction unbound
[11] = type: in vitro ADME
[12] = Incubations with human hepatic S9; conditions: for CLint scaled at 1 μM: both; for CLint scaled at 1 μM / E (estimated hepatic extraction ratio): human; for Fm,AO Method A (fraction metabolized by AO): method A (eq. 4); for Fm,AO Method B (fraction metabolized by AO): method B (eq. 5), values > 1 assumed equal to 1; for E (estimated hepatic extraction ratio): E = CLHEP/QH from hepatic S9 (+NADPH)
[13] = cynomolgus monkey; ref Hutzler JM, Cerny MA, Yang YS et al. (2014); cited from earlier work
[14] = Incubations with minipig hepatic S9; conditions: for CLint scaled at 1 μM: male, Gottingen, Table 1, triplicate, 2–3 experiments; for CLint scaled at 1 μM / E (estimated hepatic extraction ratio): minipig; for Fm,AO Method A (fraction metabolized by AO) / Fm,AO Method B (fraction metabolized by AO): minipig hepatic S9; for Fm,AO Method A (fraction metabolized by AO): method A (eq. 4); for Fm,AO Method B (fraction metabolized by AO): method B (eq. 5), values > 1 assumed equal to 1; for E (estimated hepatic extraction ratio): E = CLHEP/QH from hepatic S9 (+NADPH)

SMILES: CN1CCC(Nc2ncc3ncnc(Nc4ccc(F)c(Cl)c4)c3n2)CC1 [BIBX1382]
- fold-error of human S9 CLint predicted by SSS ([1]; SSS from guinea pig): outside of 3-fold-error
- SSS Human Predicted S9 CLint ([1]; single-species scaling from cynomolgus monkey S9 CLint): 88.7 mL/min/kg
- SSS Human Predicted S9 CLint ([1]; single-species scaling from mouse S9 CLint): 4.3 mL/min/kg
- SSS Human Predicted S9 CLint ([1]; single-species scaling from rat S9 CLint): 7.5 mL/min/kg
- Fm,AO Method A (fraction metabolized by AO) [2]: 0.65
- Fm,AO Method B (fraction metabolized by AO) [2]: 0.73
- E (estimated hepatic extraction ratio) [2]: 0.54
- CLp (plasma clearance) [3]: 25–55^¶ mL/min/kg
- CLint scaled at 1 μM ([4]; s9, pH 7.4, CLint (intrinsic clearance) in hepatic S9, mouse hepatic S9, in the presence of NADPH): 33.2 ± 7.1 mL/min/kg
- E (estimated hepatic extraction ratio) [4]: 0.27
- SSS Human Predicted CLp ([5]; single-species scaling from literature cynomolgus monkey CLp): 56 mL/min/kg and 56.0 mL/min/kg
- SSS Human Predicted CLp ([5]; single-species scaling from literature mouse CLp): 7.2 mL/min/kg
- SSS Human Predicted CLp ([5]; single-species scaling from literature rat CLp): 13.4 mL/min/kg
- CLp (plasma clearance) [6]: 55^¶ mL/min/kg
- CLp (plasma clearance) [7]: 55^¶ mL/min/kg
- Fm,AO Method A (fraction metabolized by AO) ([8]; cynomolgus monkey hepatic S9): 1
- Fm,AO Method B (fraction metabolized by AO) ([8]; cynomolgus monkey hepatic S9): 1^#
- Fm,AO (fraction metabolized by AO) ([8]; cynomolgus monkey hepatic S9, methods A and B taken together (data from Table 3)): 1.0
- E (estimated hepatic extraction ratio) [8]: 0.80
- Fm,AO Method A (fraction metabolized by AO) [9]: 0.94
- Fm,AO Method B (fraction metabolized by AO) [9]: 0.86
- E (estimated hepatic extraction ratio) [9]: 0.72
- CLint scaled at 1 μM ([10]; s9, pH 7.4, CLint (intrinsic clearance) in hepatic S9, rat hepatic S9, in the presence of NADPH): 30.7 ± 3.56 mL/min/kg
- Fm,AO Method A (fraction metabolized by AO) ([10]; rat hepatic S9): 0.09
- Fm,AO Method B (fraction metabolized by AO) ([10]; rat hepatic S9): 0.69
- Fm,AO (fraction metabolized by AO) ([10]; rat hepatic S9, methods A and B taken together (data from Table 3)): ≤ 0.69
- CLint +NADPH +Hyd ([10]; rat hepatic S9 containing NADPH and hydralazine (50 μM)): 25.1 ± 6.29 mL/min/kg
- CLint +NADPH ([10]; rat hepatic S9 containing NADPH, Table 3 data set, triplicate): 27.6 ± 0.995 mL/min/kg
- E (estimated hepatic extraction ratio) [10]: 0.30
- CLHEP (hepatic clearance) [10]: 21.3 ± 1.73 mL/min/kg
- E (estimated hepatic extraction ratio), across species ([11]; human, monkey, and minipig S9): 0.72 – 0.83
- CLint scaled at 1 μM ([12]; s9, pH 7.4, CLint (intrinsic clearance) in hepatic S9, human hepatic S9, in the presence of NADPH, Table 1, triplicate, 2–3 experiments): 80.2 ± 9.61 mL/min/kg
- CLint scaled at 1 μM ([12]; s9, pH 7.4, CLint +NADPH +Hyd, human hepatic S9 containing NADPH and hydralazine (50 μM)): 5.83 ± 1.22 mL/min/kg
- CLint scaled at 1 μM ([12]; s9, pH 7.4, CLint −NADPH +Hyd, human hepatic S9 containing hydralazine (50 μM) without NADPH): 3.93 ± 1.75 mL/min/kg
- CLint scaled at 1 μM ([12]; s9, pH 7.4, CLint −NADPH, human hepatic S9 without NADPH): 69.6 ± 2.1 mL/min/kg
- Fm,AO Method A (fraction metabolized by AO) ([12]; human hepatic S9): 0.92
- Fm,AO Method B (fraction metabolized by AO) ([12]; human hepatic S9): 0.92
- Fm,AO (fraction metabolized by AO) ([12]; human hepatic S9, methods A and B taken together (data from Table 3)): 0.92
- E (estimated hepatic extraction ratio) [12]: 0.79
- CLp (plasma clearance) [13]: 118^¶ mL/min/kg
- CLint scaled at 1 μM ([14]; s9, pH 7.4, CLint (intrinsic clearance) in hepatic S9, minipig hepatic S9, in the presence of NADPH): 134 ± 5.69 mL/min/kg
- Fm,AO Method A (fraction metabolized by AO) [14]: 0.85
- Fm,AO Method B (fraction metabolized by AO) [14]: 0.96
- E (estimated hepatic extraction ratio) [14]: 0.83

- fold-error of human S9 CLint predicted by SSS ([1]; SSS from cynomolgus monkey): outside of 3-fold-error
- fold-error of human S9 CLint predicted by multispecies allometry (MA) ([1]; minipig/rhesus/guinea pig combination, CLpred/CLobs): 3.0
- Fm,AO Method A (fraction metabolized by AO) [2]: 0.23
- Fm,AO Method B (fraction metabolized by AO) [2]: 0.03
- E (estimated hepatic extraction ratio) [2]: 0.41
- CLint scaled at 1 μM ([4]; hepatic S9, pH 7.4, CLint (intrinsic clearance) in hepatic S9, mouse hepatic S9, in the presence of NADPH): 39.4 ± 7.19 mL/min/kg
- Fm,AO Method A (fraction metabolized by AO) ([4]; mouse hepatic S9, method A (eq. 4)): 0.33
- Fm,AO Method B (fraction metabolized by AO) ([4]; mouse hepatic S9, method B (eq. 5), values > 1 assumed equal to 1): 0.22
- E (estimated hepatic extraction ratio) [4]: 0.30
- Fm,AO Method A (fraction metabolized by AO) ([8]; cynomolgus monkey hepatic S9): 0.58
- Fm,AO Method B (fraction metabolized by AO) ([8]; cynomolgus monkey hepatic S9): 0.68
- E (estimated hepatic extraction ratio) [8]: 0.50
- Fm,AO Method A (fraction metabolized by AO) [9]: 0.34
- Fm,AO Method B (fraction metabolized by AO) [9]: 0.14
- E (estimated hepatic extraction ratio) [9]: 0.40
- CLint scaled at 1 μM ([10]; hepatic S9, pH 7.4, CLint (intrinsic clearance) in hepatic S9, rat hepatic S9, in the presence of NADPH): 35.3 ± 6.39 mL/min/kg
- Fm,AO Method A (fraction metabolized by AO) ([10]; rat hepatic S9): 0.42
- Fm,AO Method B (fraction metabolized by AO) ([10]; rat hepatic S9): 0.28
- E (estimated hepatic extraction ratio) [10]: 0.33
- CLHEP (hepatic clearance) [10]: 23.3 ± 2.85 mL/min/kg
- Fm,AO, across species ([11]; all species): 0.03 – 0.68
- E (estimated hepatic extraction ratio), across species ([11]; all species (human, mouse, rat, guinea pig, cynomolgus, rhesus, minipig) hepatic S9): 0.25 – 0.50
- CLint scaled at 1 μM ([12]; hepatic S9, pH 7.4, CLint (intrinsic clearance) in hepatic S9, human hepatic S9, in the presence of NADPH, Table 1, triplicate, 2–3 experiments): 7.1 ± 2.28 mL/min/kg
- CLint scaled at 1 μM ([12]; hepatic S9, pH 7.4, CLint −NADPH, human hepatic S9 without NADPH): 4.51 ± 0.31 mL/min/kg
- Fm,AO Method A (fraction metabolized by AO) ([12]; human hepatic S9): 0.36
- Fm,AO Method B (fraction metabolized by AO) ([12]; human hepatic S9): 0.61
- E (estimated hepatic extraction ratio) [12]: 0.25
- CLint scaled at 1 μM ([14]; hepatic S9, pH 7.4, CLint (intrinsic clearance) in hepatic S9, minipig hepatic S9, in the presence of NADPH): 25.4 ± 1.46 mL/min/kg
- Fm,AO Method A (fraction metabolized by AO) [14]: 0.18
- Fm,AO Method B (fraction metabolized by AO) [14]: 0.12
- E (estimated hepatic extraction ratio) [14]: 0.48
SMILES: Cn1cc(-c2ccc3nnc(Sc4ccc5ncccc5c4)n3n2)cn1 [SGX523]
